Results taken from patent US20160158317A1, “Antimicrobial Peptide Variants and Polynucleotides Encoding Same” (Adenium Biotech A/S, priority 2010, published 2016).
Where “and” joins values, the source holds several entries; their conditions need not be identical. Identical values can stand only once. Marks after values point to notes of the source that are not given here.

Columns and labels:
E. coli AID#172 [1] = assay: Neutropenic thigh infection model, dose-response and estimation of ED50 (Example 4); assay type: in vivo, Escherichia coli
Description: (§1) The purpose of this study was to investigate the dose-response relationship following intravenous (i.v.) administration of a single dose of NZ17074 ranging from 0.16-12 mg/kg. The effect was tested against E. coli AID#172 in the neutropenic thigh model. Treatment with 40 mg/kg meropenem was included as a positive control group. The colony counts in thighs were determined at 5 hours after treatment.
The thigh infection model is a well-recognized model for studies of antimicrobial effect and tissue penetration as described by S. Gudmundsson & H. Erlensdóttir: Handbook of Animal Models of Infection (1999), ed. by O. Zak & M. A. Sande, Academic Press, San Diego, US and in several publications. Reviewed by D. Andes & C. Craig: Animal model pharmacokinetics and pharmacodynamics: a critical review. International Journal of Antimicrobial Agents 19(4): 261-268.
• 40 outbred, NMRI female mice, 25-30 grams (Harlan Scandinavia) • E. coli AID#172 from Statens Serum Institute, Copenhagen, Denmark: Clinical isolate from a human wound from 2003. Multiresistant (Ampicillin, Ceftazidime, Aztreonam, Gentamicin, Ciprofloxacin) • NZ17074 in Ringer Acetate, pH 6: 1.2 mg/ml, 6.0 ml. The solution was stored at 4° C. until use. Analyses of the dose formulations used were performed after completion of the in-life phase of the study and gave the following results: […]
(§2) The mice were observed during the study and scored 0-5 based on their behaviour and clinical signs. • Score 0: Healthy. • Score 1: Minor clinical signs of infection and inflammation e.g. observations of minor signs of distress or changed activity. • Score 2: Clear signs of infection like, social withdrawal, lack of curiosity, changed body position, piloerection, or changes in pattern of movement. • Score 3: Severe signs of infection like stiff movements, lack of curiosity, changed body position, piloerection, pain, or changes in pattern of movement. • Score 4: Severe pain and the mouse was sacrificed immediately to minimize the suffering of the animal. • Score 5: The mouse was dead.
Colony counts were determined from thighs at 0 and 5 hours. […]

E. coli AID#172 [2] = assay: Neutropenic murine peritonitis/sepsis model, dose-response and estimation of ED50 (Example 2); assay type: in vivo, Escherichia coli; parameters: key to Clinical score T = 0 hour / Clinical score T = 5 hours: Score 0: Healthy.; Score 1: Minor clinical signs of infection and inflammation e.g. observations of minor signs of distress or changed activity.; Score 2: Clear signs of infection like, social withdrawal, lack of curiosity, changed body position, piloerection, or changes in pattern of movement.; Score 3: Severe signs of infection like stiff movements, lack of curiosity, changed body position, piloerection, pain, or changes in pattern of movement.; Score 4: Severe pain and the mouse was sacrificed immediately to minimize the suffering of the animal.; Score 5: The mouse was dead
Description: as §1, with “peritonitis” for “thigh”, “blood and peritoneal fluid” for “thighs”
The murine peritonitis/sepsis model is a well-recognized model for studies of antimicrobial activity as described by N. Frimodt-Møller and J. D. Knudsen in Handbook of Animal Models of Infection (1999), ed. by O. Zak & M. A. Sande, Academic Press, San Diego, US.
• 30 outbred, NMRI female mice, 25-30 grams (Harlan Scandinavia) • E. coli AID#172 from Statens Serum Institute, Copenhagen, Denmark. Clinical isolate from a human wound from 2003. Multiresistant (Ampicillin, Ceftazidime, Aztreonam, Gentamicin, Ciprofloxacin) • NZ17074 in Ringer Acetate, pH 6: 1.2 mg/ml, 6.0 ml. The solution was stored at 4° C. until use. Analyses of the dose formulations used were performed after completion of the in-life phase of the study and gave the following results:
The mice were rendered neutropenic by injecting 0.5 ml cyclophosphamide solution intraperitoneally 4 days (200 mg/kg) and 1 day (100 mg/kg) prior to inoculation.
Fresh overnight E. coli AID#172 colonies from a 5% Horse Blood Agar plate were suspended and diluted in sterile saline to approximately 2×10^6 CFU/ml. One hour before start of treatment (time −1 hr) mice were inoculated intraperitoneally with 0.5 ml of the E. coli suspension in the lateral lower quadrant of the abdomen. Approximately ½-1 hour after treatment, mice were treated orally with 45 microliters neurophen (20 mg ibuprofen/ml corresponding to 30 mg/kg) as a pain relief.
The mice were treated i.v. in the lateral tail vein over approximately 30 seconds with 10 ml/kg with a single dose of NZ17074, meropenem or vehicle at time 0 hour (see Table 1). The dosing was based on a mean weight of 30 g. Mice that weighed 28-32 g received 0.30 ml solution. Mice that weighed 27-28 g received 0.25 ml solution and mice that weighed 32.1-36 g received 0.35 ml solution.
as §2
Colony counts were determined from blood and peritoneal fluid at 0 and 5 hours. The mice were anaesthetized with CO2+O2 and blood was collected from axillary cutdown in 1.5 ml EDTA coated eppendorf tubes. The mice were sacrificed immediately after blood sampling and a total of 2 ml sterile saline was injected i.p. and the abdomen gently massaged before it was opened and fluid sampled with a pipette. Each sample was then 10 fold diluted in saline and 20-microliter spots were applied on blue agar plates. All agar plates were incubated 18-22 hours at 35° C. in ambient air.
The colony counts were performed at the start of treatment and 5 hours after treatment. The CFU numbers are log10 transformed before performing calculations.

C[C@@H](O)[C@H]1C(=O)N2C(C(=O)O)=C(S[C@@H]3CN[C@H](C(=O)N(C)C)C3)[C@H](C)[C@H]12 [meropenem]
CFU levels in thigh compared to vehicle (E. coli AID#172 [1]; 40 mg/kg i.v., 5 hours): slight but not significant reduction
log10 CFU thigh mean (E. coli AID#172 [1]; Meropenem 40 mg/kg single dose, thigh, T = 5, group mean without outlier, not significant vs vehicle): 4.25 log10 CFU/ml
log10 CFU thigh (E. coli AID#172 [1]; Meropenem 40 mg/kg single dose, thigh, T = 5, individual mice, ¤ value excluded from mean as outlier): 3.08¤ log10 CFU/ml and 3.81¤ log10 CFU/ml and 4.99 log10 CFU/ml and 3.94 log10 CFU/ml
CFU levels in blood and peritoneal fluid compared to vehicle (E. coli AID#172 [2]; 40 mg/kg i.v., 5 hours, blood p<0.05, peritoneal fluid p<0.01): significant reduction
Clinical score T = 0 hour (E. coli AID#172 [2]; Meropenem 40 mg/kg single dose group, score at start of treatment, individual mice): 1
log10 CFU Mean Blood (E. coli AID#172 [2]; Meropenem 40 mg/kg single dose, blood, T = 5, group mean, p < 0.05 vs vehicle): 2.38* log10 CFU/ml
log10 CFU Blood (E. coli AID#172 [2]; Meropenem 40 mg/kg single dose, blood, T = 5, individual mice): 2.48 log10 CFU/ml and 1.70 log10 CFU/ml and 2.95 log10 CFU/ml
Clinical score T = 5 hours (E. coli AID#172 [2]; Meropenem 40 mg/kg single dose, individual mice): 1 (2×) and 0
log10 CFU mean PF (E. coli AID#172 [2]; Meropenem 40 mg/kg single dose, peritoneal fluid, T = 5, group mean, p < 0.01 vs vehicle): 2.64** log10 CFU/ml
log10 CFU PF (E. coli AID#172 [2]; Meropenem 40 mg/kg single dose, peritoneal fluid, T = 5, individual mice): 3.92 log10 CFU/ml and 1.70 log10 CFU/ml and 2.30 log10 CFU/ml
